One compound from patent publication US5877202A, “Indole derivatives useful to treat estrogen-related neoplasms and disorders” (priority 1996, dated 1999) can be followed below.

Test [1] addresses T1, estrogen receptor binding to an estrogen response element (Homo sapiens, UniProt P03372).
T1 construct: estrogen receptor extracted from MCF-7 human breast tumor cells; endogenous in cells; host or cells: MCF-7 human breast cancer cells (nuclear extract, cytosol or whole cell extract)
T1 sequence (P03372 1-595): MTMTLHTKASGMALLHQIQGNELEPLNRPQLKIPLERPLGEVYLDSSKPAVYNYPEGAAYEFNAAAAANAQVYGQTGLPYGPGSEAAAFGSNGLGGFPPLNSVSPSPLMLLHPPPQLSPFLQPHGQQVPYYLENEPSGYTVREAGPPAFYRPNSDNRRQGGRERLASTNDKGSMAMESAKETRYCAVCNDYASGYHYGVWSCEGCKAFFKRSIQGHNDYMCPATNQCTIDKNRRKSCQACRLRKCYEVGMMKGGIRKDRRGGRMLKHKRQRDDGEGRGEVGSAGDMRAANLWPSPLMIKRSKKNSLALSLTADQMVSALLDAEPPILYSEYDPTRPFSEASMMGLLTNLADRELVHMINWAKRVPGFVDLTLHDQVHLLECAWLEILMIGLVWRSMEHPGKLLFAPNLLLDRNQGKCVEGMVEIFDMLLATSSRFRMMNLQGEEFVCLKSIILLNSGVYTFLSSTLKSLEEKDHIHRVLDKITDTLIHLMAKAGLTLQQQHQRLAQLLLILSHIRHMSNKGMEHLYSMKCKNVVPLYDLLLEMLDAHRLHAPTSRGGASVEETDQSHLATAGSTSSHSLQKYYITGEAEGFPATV
Kind of test: Inhibition of estrogen receptor binding to an estrogen response element in DNA mobility shift assays. Type of test: biochemical, human (nuclear extract of MCF-7 human breast cancer cells). Here is the method: (§1) Monolayers of MCF-7 human breast cancer cells are rinsed once with HBSS and scraped off culture dishes into 15 ml conical tubes with 5 ml HBSS. The cells are sedimented by centrifugation at 250×g for five minutes, suspended in 1 ml HBSS and sedimented by centrifugation at 2000 rpm in a tabletop centrifuge for five minutes in a 1.5 ml microfuge tube. Two PCV of a solution of a lysis buffer (25 mM HEPES, pH 7.8, 50 mM KCl, 0.5% Nonidet P 40, 2 mM dithiothreitol, 0.2 mM phenylmethylsulfonyl fluoride, 0.05 mg/ml leupeptin, 0.05 mg/ml aprotinin, 0.0025 mg/ml pepstatin, 0.005 mg/ml antipain) are added and cells are kept on ice for 15 minutes. Lysed cells are centrifuged for 3 minutes at 10,000×g, supernatant decanted, and kept as the cytosol fraction. Pellets are suspended in two PCV of extraction buffer (25 mM HEPES, pH 7.8, 500 mM KCl, 10% glycerol, 2 mM dithiothreitol and the above protease inhibitors), mixed for 20 minutes by inversion at 4 degrees C. and centrifuged at 10,000×g for 20 minutes. The supernatant is decanted and saved as nuclear extract. Both the nuclear extract and the cytosol are dialyzed for two hours against dialysis buffer (25 mM HEPES, pH 7.8, 50 mM KCl, 10% glycerol, 2 mM dithiothreitol and the above protease inhibitors). Nuclear and cytosol fractions are stored frozen at -80 degrees C. until used for mobility shift assays or determination of estrogen receptor content.
Briefly, to each reaction tube was added 0.01 mg nuclear extract, 2 μg poly dIdC, 50 mM NaCl, 1 mM dithiothreitol and 10 mM Tris, pH 7.5 in a total volume of 0.01 ml and the mixture was kept at room temperature for 10 minutes. A ^32 P-labelled estrogen response element [ERE]

A further test has as its target T2, estrogen receptors (Homo sapiens, UniProt P03372).
T2 construct: estrogen receptor extracted from MCF-7 human breast tumor cells; endogenous in cells; host or cells: MCF-7 human breast cancer cells (nuclear extract, cytosol or whole cell extract)
T2 sequence (P03372 1-595): T1 sequence (P03372 1-595)
Kind of test: Quantification of estrogen receptors in nuclear and whole cell extracts (ER-EIA monoclonal kit), Table 1. Type of test: cell-based, human (MCF-7 human breast cancer cells). To be noted: estrogen receptors in nuclear extracts. As for the experimental part:
as §1
Whole cell extracts of tumor cells are prepared by the method of Reese and Katzenellenbogen, Nuc. Acids Res., 19: 6595-6602 (1991), with some modifications. Cell monolayers are rinsed once with HBSS, then scraped into HBSS and sedimented by centrifugation (5 min., 250×g). After resuspending in 1 mL HBSS, the cells are again sedimented at 250×g for 5 min at 4° C. The cell pellet is resuspended in lysis/extract buffer containing 20 mM Tris, pH 7.5, 10% glycerol (v/v), 0.5M sodium chloride and 0.5% NP-40 (v/v) and incubated on ice for 25 minutes, then the supernatants are dialyzed against 25 mM HEPES, pH 7.8, 10% glycerol (v/v), 0.5 mM dithiothreitol and 50 mM potassium chloride for 2 hours at 4° C. Both the lysis/extraction and the dialysis buffers contain protease inhibitors which included 0.5 mM phenylmethylsulfonylfluoride, 0.05 mg/mL leupeptin, 0.05 mg/mL aprotinin, 0.00-25 mg/mL pepstatin, and 0.005 mg/mL antipain. Dialyzed whole cell extracts are stored in aliquots at -80° C. until used.
The protein concentration for nucleus and cytosol fractions are determined with a BIO-RAD kit, according to the manufacturer's instructions.
Estrogen receptor levels in nuclear and whole cell extracts of tumor cells were quanitated using the ER-EIA monoclonal kit manufactured by Abbott Laboratories (Diagnostic Division) according to the kit instructions.
receptors in nuclear extracts.
.dagger.WCE refers to IC50 value for estrogen receptors in whole cel
A slash dividing two numbers indicates the results of two separate

For test [2], the system named is MCF-7 human breast tumor cells. Kind of test: Inhibition of growth of MCF-7 human breast tumor cells. Type of test: cell-based. To be noted: MCF7, MCF-7 cells, medium with 0.001 mg/ml insulin.
A further test has as its system GAPDH mRNA. Kind of test: GAPDH mRNA levels in treated MCF-7 human breast tumor cells (positive control probe).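 Further: Phosphoimager intensity of radioactive mRNA bands.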 Type of test: cell-based. To be noted: 30 μM, 24 hr. Here is the method:
After treatment with 30 μM drug for 24 hr, total RNA is isolated according to the guanidinium isothiocyanate method using an RNA preparation kit from 5 Prime-3 Prime, Inc., following the manufacturer's instructions. The RNA is separated by formaldehyde gel electrophoresis and transferred to a nylon membrane.

Where [3] appears, read: read-out: integrated volume of shifted ERE oligo as percentage of control, given as % inhibition.

In the case of `CCCCN(C)C(=O)CCCCCCCNC(=O)Cc1c(C)n(C(=O)c2ccc(Cl)cc2)c2ccc(O)cc12` [MDL 101,906, 8-[[5-Hydroxy-1-(4-chlorobenzoyl)-2-methyl-1H-indol-3-yl]-acetylamino]-octanoic acid methyl-butyl-amide], the half-inhibitory concentration (IC50) in test [1] came to 8.5 µM; on estrogen receptors, 19 µM; on estrogen receptors (second of two separate experiments (after the slash)), 8.6 µM; in test [2], 3.8 µM. The inhibition at 2 µM in test [1] (setting [3]) is 81%. For the same compound, the inhibition at 5 µM in test [1] (setting [3]) was determined as 76%. The inhibition at 10 µM in test [1] (setting [3]) is 46%. Further, the inhibition at 20 µM in test [1] (setting [3]) was 38%. Moreover, the “GAPDH mRNA band intensity” value in the test on GAPDH mRNA (replicate 1) is 5,227; in the test with GAPDH mRNA (replicate 2), 5,077.

For orientation: IC50 means the concentration at which inhibition is half-maximal.
